Laboratory results published in ChEMBL document CHEMBL1124243, “Application of the message-address concept in the design of highly potent and selective non-peptide delta opioid receptor antagonists” (J Med Chem, 1988).
The source made the active and inactive calls. The rule behind the calls is not given here.

Legend:
[1] = target: Delta-type opioid receptor (Mus musculus) (UniProt P32300); assay: Antagonistic activity against Opioid receptor delta 1 using [D-Ala2,D-Leu5]enkephalin in mouse vas deferens preparation; type: functional
Chain of Delta-type opioid receptor (Mus musculus) (P32300 whole entry): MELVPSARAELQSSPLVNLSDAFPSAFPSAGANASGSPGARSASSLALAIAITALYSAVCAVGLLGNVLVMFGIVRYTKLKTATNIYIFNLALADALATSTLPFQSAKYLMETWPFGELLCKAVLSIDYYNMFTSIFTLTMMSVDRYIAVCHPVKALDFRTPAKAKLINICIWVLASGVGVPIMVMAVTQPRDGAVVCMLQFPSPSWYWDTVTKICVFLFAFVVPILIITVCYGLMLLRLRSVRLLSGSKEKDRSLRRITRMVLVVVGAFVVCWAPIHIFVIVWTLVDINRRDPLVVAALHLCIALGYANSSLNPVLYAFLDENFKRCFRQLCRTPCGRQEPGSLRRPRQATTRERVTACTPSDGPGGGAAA

[2] = target: Mu-type opioid receptor (Cavia porcellus) (UniProt P97266); assay: Antagonistic activity against Opioid receptor mu 1 using morphine in guinea pig ileum preparation; D means no significant antagonism at 200 nM; type: functional, tissue-based
Chain of Mu-type opioid receptor (Cavia porcellus) (P97266 whole entry): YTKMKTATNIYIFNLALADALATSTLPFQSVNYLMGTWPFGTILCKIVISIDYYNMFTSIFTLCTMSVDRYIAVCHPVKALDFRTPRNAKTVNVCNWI

[3] = target: Kappa-type opioid receptor (Cavia porcellus) (UniProt P41144); assay: Antagonistic activity against Opioid receptor kappa 1 using ethylketazocine in guinea pig ileum preparation; No significant antagonism at 200 nM; type: functional, tissue-based
Chain of Kappa-type opioid receptor (Cavia porcellus) (P41144 whole entry): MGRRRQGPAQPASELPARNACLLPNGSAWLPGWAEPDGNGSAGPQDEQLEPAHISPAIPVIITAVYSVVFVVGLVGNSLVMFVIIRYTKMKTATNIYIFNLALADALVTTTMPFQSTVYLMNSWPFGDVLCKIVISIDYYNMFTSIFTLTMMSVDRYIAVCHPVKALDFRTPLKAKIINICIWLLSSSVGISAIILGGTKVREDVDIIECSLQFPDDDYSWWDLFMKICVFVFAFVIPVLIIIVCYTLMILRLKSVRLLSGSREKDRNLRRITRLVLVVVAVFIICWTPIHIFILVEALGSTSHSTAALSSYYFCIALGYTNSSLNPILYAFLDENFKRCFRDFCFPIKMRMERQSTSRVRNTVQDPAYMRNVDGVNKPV

[4] = target: Mu-type opioid receptor (Cavia porcellus) (UniProt P97266); assay: Antagonistic activity against Opioid receptor mu 1 using morphine in guinea pig ileum preparation; type: functional, tissue-based
[5] = target: Kappa-type opioid receptor (Cavia porcellus) (UniProt P41144); assay: Antagonistic activity against Opioid receptor kappa 1 using ethylketazocine in guinea pig ileum preparation; type: functional, tissue-based
[6] = target: Mu-type opioid receptor (Cavia porcellus) (UniProt P97266); conditions: Ileum
Description: Antagonistic activity against Opioid receptor mu 1 receptor using morphine in guinea pig ileum preparation

For `Cc1ccc2[nH]c3c(c2c1)C[C@@]1(O)[C@H]2Cc4ccc(O)c5c4[C@@]1(CCN2CC1CC1)[C@H]3O5`, the Ke [1] was 4.2 nM, the Ke [2] was “inactive” and the Ke [3] was “inactive”.
In the case of `Oc1ccc2c3c1O[C@H]1c4oc5ccccc5c4C[C@@]4(O)[C@@H](C2)N(CC2CC2)CC[C@]314`, the Ke [1] is reported as 1.1 nM, the Ke [4] is reported as 27 nM and the Ke [5] is reported as 48 nM.
`Oc1ccc2c3c1O[C@H]1c4[nH]c5ccc(F)cc5c4C[C@@]4(O)[C@@H](C2)N(CC2CC2)CC[C@]314` was tested, and the Ke [1] was 2 nM, the Ke [5] was 46 nM and the Ke [6] was 61 nM.
For `Oc1ccc2c3c1O[C@H]1c4[nH]c5ccccc5c4C[C@@]4(O)[C@@H](C2)N(CC2CC2)CC[C@]314`, the Ke [1] was 0.21 nM, the Ke [5] was 58 nM and the Ke [6] was 32 nM.
For `COc1ccc2[nH]c3c(c2c1)C[C@@]1(O)[C@H]2Cc4ccc(O)c5c4[C@@]1(CCN2CC1CC1)[C@H]3O5`, the Ke [1] was 5.7 nM, the Ke [4] was 63 nM and the Ke [5] was 13 nM.
